Laboratory results reported in ChEMBL document CHEMBL4004890, “RITA Mimics: Synthesis and Mechanistic Evaluation of Asymmetric Linked Trithiazoles” (2017).
Values belong to the compound of their own block, whether it stands above or below them. Active and inactive are the calls of the source. No cut-off for these calls is given here.

What was measured:
[1] = system: HCT-116; assay: Growth inhibition of human HCT116 cells after 24 hrs by CCK8 assay; type: functional; conditions: HCT-116, 24 h
[2] = system: HCT-116; assay: Upregulation of p53 expression in human HCT116 cells at 1 uM at 6 hrs post dose by chemiluminescent immunoblotting; type: functional, cell-based
[3] = system: HCT-116; assay: Antiproliferative activity against human HCT116 cells; type: functional
[4] = system: HCT-116; assay: Down regulation of c-Myc expression in human HCT116 cells at 10 uM after 6 to 24 hrs by chemiluminescent immunoblotting; type: functional, cell-based
[5] = system: HCT-116; assay: Induction of apoptosis in human HCT116 cells at 1 uM after 24 hrs by Annexin-V-FITC/7AAD staining based flow cytometry; type: functional, cell-based
[6] = system: HCT-116; assay: Down regulation of Mcl-1 expression in human HCT116 cells at 1 to 10 uM after 6 to 24 hrs by chemiluminescent immunoblotting; type: functional, cell-based
[7] = system: HCT-116; assay: Down regulation of c-Myc expression in human HCT116 cells at 1 uM after 12 to 24 hrs by chemiluminescent immunoblotting; type: functional, cell-based
[8] = system: HCT-116; assay: Down regulation of c-Myc expression in human HCT116 cells at 1 uM after 6 hrs by chemiluminescent immunoblotting; type: functional, cell-based
[9] = system: HCT-116; assay: Induction of apoptosis in human HCT116 cells at 10 uM after 24 hrs by Annexin-V-FITC/7AAD staining based flow cytometry; type: functional, cell-based
[10] = system: HCT-116; assay: Upregulation of p53 expression in human HCT116 cells at 10 uM at 12 hrs post dose by chemiluminescent immunoblotting; type: functional, cell-based
[11] = system: K562; assay: Antiproliferative activity against human K562 cells; type: functional
[12] = system: HCT-116; assay: Growth inhibition of human HCT116 cells at 10 uM after 24 hrs by CCK8 assay relative to control; type: functional
[13] = system: CCRF-CEM; assay: Antiproliferative activity against human CCRF-CEM cells; type: functional

GI50 [1]: 800 nM
GI50 [3]: 110 nM
Compound: OCc1ccc(-c2ccc(-c3ccc(CO)s3)o2)s1
Activity [2]: Active
Activity [4]: Active
Activity [5]: Active
Activity [6]: Active
Activity [7]: inactive
Activity [8]: Active
Activity [9]: Active
Activity [10]: Active

GI50 [11]: < 1 nM
Compound: Cc1nc(Nc2ncc(C(=O)Nc3c(C)cccc3Cl)s2)cc(N2CCN(CCO)CC2)n1 [DASATINIB]

Compound: CC(C)(C)OC(=O)N[C@H](Cc1ccccc1)c1nc(-c2nc(-c3nc(C(N)=O)cs3)cs2)cs1
growth inhibition (GI) [12]: inactive

Compound: CCOC(=O)c1csc(-c2csc(-c3csc([C@H](N)Cc4ccccc4)n3)n2)n1
growth inhibition (GI) [12]: inactive

Compound: CCOC(=O)c1csc(-c2csc(-c3csc([C@@H](N)Cc4ccccc4)n3)n2)n1
growth inhibition (GI) [12]: inactive

Compound: CCOC(=O)c1csc(-c2csc(-c3csc([C@H](Cc4ccccc4)NC(=O)OC(C)(C)C)n3)n2)n1
growth inhibition (GI) [12]: inactive

Compound: CC(C)(C)OC(=O)N[C@@H](Cc1ccccc1)c1nc(-c2nc(-c3nc(C(N)=O)cs3)cs2)cs1
growth inhibition (GI) [12]: inactive

Compound: CC(C)(C)OC(=O)N1Cc2ccccc2C[C@H]1c1nc(-c2nc(-c3nc(C(N)=O)cs3)cs2)cs1
growth inhibition (GI) [12]: inactive

GI50 [13]: 250 nM
Compound: CN[C@@H](C)C(=O)N[C@H](C(=O)N1CCC[C@H]1c1nc(C(=O)c2ccc(F)cc2)cs1)C1CCCCC1 [LCL-161]

Compound: CCOC(=O)c1csc(-c2csc(-c3csc([C@@H]4Cc5ccccc5CN4C(=O)OC(C)(C)C)n3)n2)n1
growth inhibition (GI) [12]: inactive
